Measured values taken from patent publication US20260022142A1, “MACROCYCLIC IMMUNOMODULATORS” (Bristol-Myers Squibb Company, priority 2022, published 2026).
Numbered stars: 1 amine (or outer) side, 2 acyl side, 3 side chain; on linkers, the order of the positions; unused ones are H or OH. Bridge positions count the residues as written; N and C are the ends. Square brackets hold non-standard residues; d marks the D form. Peptide text beside a SMILES is read from it. * marks the point of attachment. Phe(3-CF3) = N[C@@H](Cc1cccc(C(F)(F)F)c1)C(=O)O; Phe(4-CONH2) = NC(=O)c1ccc(C[C@H](N)C(=O)O)cc1; Phe(4-COOH) = N[C@@H](Cc1ccc(C(=O)O)cc1)C(=O)O; Bip = N[C@@H](Cc1ccc(-c2ccccc2)cc1)C(=O)O; NH(CH2)14COOH = O=C(O)CCCCCCCCCCCCCCN*; Phe(3-Me) = Cc1cccc(C[C@H](N)C(=O)O)c1; γGlu = O=C(O)[C@H](CCC(=O)[*:2])N[*:1]; βAsp = O=C(O)[C@H](CC(=O)[*:2])N[*:1]; NH(CH2)12COOH = O=C(O)CCCCCCCCCCCCN*; Val(3-OH) = CC(C)(O)[C@H](N)C(=O)O; 4Pal = N[C@@H](Cc1ccncc1)C(=O)O; Cha = N[C@@H](CC1CCCCC1)C(=O)O; PEG4 = NCCOCCOCCOCCOCCC(=O)O; Carboxymethyl = O=C(O)C*; Orn = NCCC[C@H](N)C(=O)O; Aun = NCCCCCCCCCCC(=O)O; Dab = NCC[C@H](N)C(=O)O; Nva = CCC[C@H](N)C(=O)O; Abu = CC[C@H](N)C(=O)O; AEEA = NCCOCCOCC(=O)O

Biological target: T1, PD-1/PD-L1 interaction (PE-labeled human PD-L1-Ig binding to Jurkat cell line over-expressing human PD-1) (Homo sapiens, UniProt Q15116)
T1 construct: expressed in transfected cells; host or cells: Jurkat
T1 sequence (Q15116 25-288): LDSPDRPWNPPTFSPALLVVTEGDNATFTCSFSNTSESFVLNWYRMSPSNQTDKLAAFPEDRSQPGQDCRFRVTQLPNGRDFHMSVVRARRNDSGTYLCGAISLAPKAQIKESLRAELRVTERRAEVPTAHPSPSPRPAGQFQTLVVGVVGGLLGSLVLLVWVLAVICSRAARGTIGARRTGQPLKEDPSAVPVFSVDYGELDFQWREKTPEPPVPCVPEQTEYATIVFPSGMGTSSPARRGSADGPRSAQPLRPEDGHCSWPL
Assay: Jurkat-PD-1 Cell Binding High-Content Screening Assay (CBA)
Type: cell-based
Conditions: Jurkat cell line over-expressing human PD-1; PE-labeled PD-L1-Ig 20 nM final; read-out: Jurkat hPD1-PDL1 IC50
How it was run: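 Jurkat cells over-expressing human PD-1 (8×10^3 per well, DMEM/10% FCS) preincubated with compound 2 h at 37° C, then PE-labeled human PD-L1-Ig (20 nM final) added for 1 h. Cells fixed with paraformaldehyde, Hoechst-stained, and bound fluorescence quantified by high-content imaging.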

SMILES | IC50
CC(C)C[C@H]1NC(=O)[C@H](CCCN)NC(=O)[C@H](Cc2ccc(C(=O)O)cc2)NC(=O)[C@H](Cc2ccc(-c3ccccc3)cc2)NC(=O)[C@H](Cc2ccc(C(=O)O)cc2)NC(=O)[C@H](Cc2cccc(C(F)(F)F)c2)NC(=O)[C@H](CC(=O)O)NC(=O)[C@H](Cc2ccc(OCC(=O)O)cc2)NC(=O)[C@H](C)NC(=O)CSC[C@@H](C(=O)N[C@@H](CCN)C(=O)NCCCCCCCCCCCCC(=O)O)NC(=O)[C@H](Cc2c[nH]cn2)NC(=O)[C@H](C(C)(C)O)NC(=O)[C@H](CC2CCCCC2)NC(=O)[C@H](CCN)NC1=O [Compound 2923] ({CH2CO}-AY(Carboxymethyl)D[Phe(3-CF3)][Phe(4-COOH)][Bip][Phe(4-COOH)][Orn][dL][Dab][Cha][Val(3-OH)]HC[Dab]-{NH(CH2)12COOH}; thioether N-14) | 22.5 nM
Cc1cccc(C[C@@H]2NC(=O)[C@H](CC(=O)O)NC(=O)[C@H](Cc3ccc(OCC(=O)O)cc3)NC(=O)[C@H](Cc3ccncc3)NC(=O)CSC[C@@H](C(=O)N[C@@H](CCN)C(=O)NCCCCCCCCCCC(=O)O)NC(=O)[C@H]([C@@H](C)O)NC(=O)[C@H](C(C)C)NC(=O)[C@H](CC3CCCCC3)NC(=O)[C@H](CCN)NC(=O)[C@@H](CC(C)C)NC(=O)[C@H](CCCN)NC(=O)[C@H](Cc3ccc(OCC(=O)O)cc3)NC(=O)[C@H](Cc3ccc(-c4ccccc4)cc3)NC(=O)[C@H](Cc3ccc(OCC(=O)O)cc3)NC2=O)c1 [Compound 2924] ({CH2CO}-[4Pal]Y(Carboxymethyl)D[Phe(3-Me)]Y(Carboxymethyl)[Bip]Y(Carboxymethyl)[Orn][dL][Dab][Cha]VTC[Dab][Aun]-OH; thioether N-14) | 16.8 nM
Cc1cccc(C[C@@H]2NC(=O)[C@H](CC(=O)O)NC(=O)[C@H](Cc3ccc(OCC(=O)O)cc3)NC(=O)[C@H](Cc3ccc(C(N)=O)cc3)NC(=O)CSC[C@@H](C(=O)N[C@@H](CCN)C(=O)NCCCCCCCCCCC(=O)O)NC(=O)[C@H]([C@@H](C)O)NC(=O)[C@H](C(C)C)NC(=O)[C@H](CC3CCCCC3)NC(=O)[C@H](CCN)NC(=O)[C@@H](CC(C)C)NC(=O)[C@H](CCCN)NC(=O)[C@H](Cc3ccc(OCC(=O)O)cc3)NC(=O)[C@H](Cc3ccc(-c4ccccc4)cc3)NC(=O)[C@H](Cc3ccc(OCC(=O)O)cc3)NC2=O)c1 [Compound 2925] ({CH2CO}-[Phe(4-CONH2)]Y(Carboxymethyl)D[Phe(3-Me)]Y(Carboxymethyl)[Bip]Y(Carboxymethyl)[Orn][dL][Dab][Cha]VTC[Dab][Aun]-OH; thioether N-14) | 36.6 nM
CC[C@@H]1NC(=O)CSC[C@@H](C(=O)N[C@@H](CCN)C(=O)NCCOCCOCCOCCOCCC(=O)NCCCCCCCCCCCCC(=O)O)NC(=O)[C@H](Cc2c[nH]cn2)NC(=O)[C@H](C(C)(C)O)NC(=O)[C@H](CC2CCCCC2)NC(=O)[C@H](CCN)NC(=O)[C@@H](CC(C)C)NC(=O)[C@H](CCCN)NC(=O)[C@H](Cc2ccc(C(=O)O)cc2)NC(=O)[C@H](Cc2ccc(-c3ccccc3)cc2)NC(=O)[C@H](Cc2ccc(C(=O)O)cc2)NC(=O)[C@H](Cc2cccc(C(F)(F)F)c2)NC(=O)[C@H](CC(=O)O)NC(=O)[C@H](Cc2ccc(OCC(=O)O)cc2)NC1=O [Compound 2926] ({CH2CO}-[Abu]Y(Carboxymethyl)D[Phe(3-CF3)][Phe(4-COOH)][Bip][Phe(4-COOH)][Orn][dL][Dab][Cha][Val(3-OH)]HC[Dab][PEG4]-{NH(CH2)12COOH}; thioether N-14) | 32.9 nM
CC[C@@H]1NC(=O)CSC[C@@H](C(=O)N[C@@H](CCN)C(=O)NCCOCCOCCOCCOCCC(=O)NCCCCCCCCCCCCCCC(=O)O)NC(=O)[C@H](Cc2c[nH]cn2)NC(=O)[C@H](C(C)(C)O)NC(=O)[C@H](CC2CCCCC2)NC(=O)[C@H](CCN)NC(=O)[C@@H](CC(C)C)NC(=O)[C@H](CCCN)NC(=O)[C@H](Cc2ccc(C(=O)O)cc2)NC(=O)[C@H](Cc2ccc(-c3ccccc3)cc2)NC(=O)[C@H](Cc2ccc(C(=O)O)cc2)NC(=O)[C@H](Cc2cccc(C(F)(F)F)c2)NC(=O)[C@H](CC(=O)O)NC(=O)[C@H](Cc2ccc(OCC(=O)O)cc2)NC1=O [Compound 2927] ({CH2CO}-[Abu]Y(Carboxymethyl)D[Phe(3-CF3)][Phe(4-COOH)][Bip][Phe(4-COOH)][Orn][dL][Dab][Cha][Val(3-OH)]HC[Dab][PEG4]-{NH(CH2)14COOH}; thioether N-14) | 244 nM
CC[C@@H]1NC(=O)CSC[C@@H](C(=O)N[C@@H](CCN)C(=O)NCCCCCCCCCCCCC(=O)O)NC(=O)[C@H](Cc2c[nH]cn2)NC(=O)[C@H](C(C)(C)O)NC(=O)[C@H](CC2CCCCC2)NC(=O)[C@H](CCN)NC(=O)[C@@H](CC(C)C)NC(=O)[C@H](CCCN)NC(=O)[C@H](Cc2ccc(C(=O)O)cc2)NC(=O)[C@H](Cc2ccc(-c3ccccc3)cc2)NC(=O)[C@H](Cc2ccc(C(=O)O)cc2)NC(=O)[C@H](Cc2cccc(C(F)(F)F)c2)NC(=O)[C@H](CC(=O)O)NC(=O)[C@H](Cc2ccc(OCC(=O)O)cc2)NC1=O [Compound 2928] ({CH2CO}-[Abu]Y(Carboxymethyl)D[Phe(3-CF3)][Phe(4-COOH)][Bip][Phe(4-COOH)][Orn][dL][Dab][Cha][Val(3-OH)]HC[Dab]-{NH(CH2)12COOH}; thioether N-14) | 44.8 nM
CC[C@@H]1NC(=O)CSC[C@@H](C(=O)N[C@@H](CCN)C(=O)NCCCCCCCCCCCCCCC(=O)O)NC(=O)[C@H](Cc2c[nH]cn2)NC(=O)[C@H](C(C)(C)O)NC(=O)[C@H](CC2CCCCC2)NC(=O)[C@H](CCN)NC(=O)[C@@H](CC(C)C)NC(=O)[C@H](CCCN)NC(=O)[C@H](Cc2ccc(C(=O)O)cc2)NC(=O)[C@H](Cc2ccc(-c3ccccc3)cc2)NC(=O)[C@H](Cc2ccc(C(=O)O)cc2)NC(=O)[C@H](Cc2cccc(C(F)(F)F)c2)NC(=O)[C@H](CC(=O)O)NC(=O)[C@H](Cc2ccc(OCC(=O)O)cc2)NC1=O [Compound 2929] ({CH2CO}-[Abu]Y(Carboxymethyl)D[Phe(3-CF3)][Phe(4-COOH)][Bip][Phe(4-COOH)][Orn][dL][Dab][Cha][Val(3-OH)]HC[Dab]-{NH(CH2)14COOH}; thioether N-14) | 369 nM
CCC[C@@H]1NC(=O)CSC[C@@H](C(=O)N[C@@H](CCN)C(=O)NCCOCCOCC(=O)N[C@@H](CC(=O)NCCOCCOCC(=O)NCCCCCCCCCCCCC(=O)O)C(=O)O)NC(=O)[C@H](CO)NC(=O)[C@H](C(C)(C)O)NC(=O)[C@H](CC2CCCCC2)NC(=O)[C@H](CCN)NC(=O)[C@@H](CC(C)C)NC(=O)[C@H](CCCN)NC(=O)[C@H](Cc2ccc(C(=O)O)cc2)NC(=O)[C@H](Cc2ccc(-c3ccccc3)cc2)NC(=O)[C@H](Cc2ccc(C(=O)O)cc2)NC(=O)[C@H](Cc2cccc(C(F)(F)F)c2)NC(=O)[C@H](CC(=O)O)NC(=O)[C@H](Cc2ccc(OCC(=O)O)cc2)NC1=O [Compound 2931] ({CH2CO}-[Nva]Y(Carboxymethyl)D[Phe(3-CF3)][Phe(4-COOH)][Bip][Phe(4-COOH)][Orn][dL][Dab][Cha][Val(3-OH)]SC[Dab][AEEA][βAsp][AEEA]-{NH(CH2)12COOH}; thioether N-14) | 26.3 nM
CC[C@@H]1NC(=O)CSC[C@@H](C(=O)N[C@@H](CCN)C(=O)NCCOCCOCC(=O)N[C@@H](CCC(=O)NCCOCCOCC(=O)NCCCCCCCCCCCCC(=O)O)C(=O)O)NC(=O)[C@H](CO)NC(=O)[C@H](C(C)(C)O)NC(=O)[C@H](CC2CCCCC2)NC(=O)[C@H](CCN)NC(=O)[C@@H](CC(C)C)NC(=O)[C@H](CCCN)NC(=O)[C@H](Cc2ccc(C(=O)O)cc2)NC(=O)[C@H](Cc2ccc(-c3ccccc3)cc2)NC(=O)[C@H](Cc2ccc(C(=O)O)cc2)NC(=O)[C@H](Cc2cccc(C(F)(F)F)c2)NC(=O)[C@H](CC(=O)O)NC(=O)[C@H](Cc2ccc(OCC(=O)O)cc2)NC1=O [Compound 2932] ({CH2CO}-[Abu]Y(Carboxymethyl)D[Phe(3-CF3)][Phe(4-COOH)][Bip][Phe(4-COOH)][Orn][dL][Dab][Cha][Val(3-OH)]SC[Dab][AEEA][γGlu][AEEA]-{NH(CH2)12COOH}; thioether N-14) | 33 nM
CC[C@@H]1NC(=O)CSC[C@@H](C(=O)N[C@@H](CCN)C(=O)NCCOCCOCC(=O)N[C@@H](CC(=O)NCCOCCOCC(=O)NCCCCCCCCCCCCC(=O)O)C(=O)O)NC(=O)[C@H](CO)NC(=O)[C@H](C(C)(C)O)NC(=O)[C@H](CC2CCCCC2)NC(=O)[C@H](CCN)NC(=O)[C@@H](CC(C)C)NC(=O)[C@H](CCCN)NC(=O)[C@H](Cc2ccc(C(=O)O)cc2)NC(=O)[C@H](Cc2ccc(-c3ccccc3)cc2)NC(=O)[C@H](Cc2ccc(C(=O)O)cc2)NC(=O)[C@H](Cc2cccc(C(F)(F)F)c2)NC(=O)[C@H](CC(=O)O)NC(=O)[C@H](Cc2ccc(OCC(=O)O)cc2)NC1=O [Compound 2933] ({CH2CO}-[Abu]Y(Carboxymethyl)D[Phe(3-CF3)][Phe(4-COOH)][Bip][Phe(4-COOH)][Orn][dL][Dab][Cha][Val(3-OH)]SC[Dab][AEEA][βAsp][AEEA]-{NH(CH2)12COOH}; thioether N-14) | 26.5 nM
CC(C)C[C@H]1NC(=O)[C@H](CCCN)NC(=O)[C@H](Cc2ccc(C(=O)O)cc2)NC(=O)[C@H](Cc2ccc(-c3ccccc3)cc2)NC(=O)[C@H](Cc2ccc(C(=O)O)cc2)NC(=O)[C@H](Cc2cccc(C(F)(F)F)c2)NC(=O)[C@H](CC(=O)O)NC(=O)[C@H](Cc2ccc(OCC(=O)O)cc2)NC(=O)[C@H](C)NC(=O)CSC[C@@H](C(=O)N[C@@H](CCN)C(=O)NCCOCCOCC(=O)N[C@@H](CCC(=O)NCCOCCOCC(=O)NCCCCCCCCCCCCC(=O)O)C(=O)O)NC(=O)[C@H](CO)NC(=O)[C@H](C(C)(C)O)NC(=O)[C@H](CC2CCCCC2)NC(=O)[C@H](CCN)NC1=O [Compound 2934] ({CH2CO}-AY(Carboxymethyl)D[Phe(3-CF3)][Phe(4-COOH)][Bip][Phe(4-COOH)][Orn][dL][Dab][Cha][Val(3-OH)]SC[Dab][AEEA][γGlu][AEEA]-{NH(CH2)12COOH}; thioether N-14) | 39 nM
